Entries after “also recorded” stand apart in the source; their conditions may differ.
Columns and labels:
[1] = test system: 253J B-V and 253J B-V cisplatin-resistant cells
A549 cells [2] = assay: Reactive oxygen species assay (DCFH-DA), A549; format: cell-based, human; settings: compound at IC50 24 h plus H2O2, H2O2 only 1.86-fold
Protocol: (§1) After incubation, compounds were added into the wells and further incubated for next 24 h. H2O2 (1 mM) was added at 22nd h of incubation with compounds. H2O2 was used as a positive control. 30 min before the analysis, DCFH-DA (20 µM) was added to the wells. After incubation, cells were harvested and washed in PBS. Then, cells were centrifuged at 1500 rpm for 10 min. Medium was removed and cells were suspended in PBS. Analysis was performed on BD Accuri C6 Flow Cytometry (Becton–Dickinson).

A549 cells [3] = assay: Colony forming assay, A549; format: cell-based, human
Text: The plates were placed on ice.

PARP-1 [4] = assay: Western blot of PARP-1 cleavage, A549; format: cell-based, human; settings: A549, 24 h, IC50 and 1/2IC50
Protocol: (§2) Then, cells were treated with chosen compounds. After 24 h of incubation, monolayer and supernatant were harvested and washed in cold PBS. Cells were centrifuged—monolayer at 1200 rpm for 10 min, supernatant 3500 rpm for 10 min. Pellets were dissolved in RIPA Lysis and Extraction buffer (Bio-Rad) containing Phosphatase Inhibitor Cocktail 3 (Sigma Aldrich) and Protease Inhibitor Cocktail (Sigma Aldrich). Samples were incubated in ice for 30 min and mixed every 10 min. Then, samples were centrifuged at 12,000 rpm for 25 min. Protein concentration in supernatants was measured in triplicate using a Protein Assay (Bio-Rad). Proteins were separated by SDS–polyacrylamide gel electrophoresis. Separating and stacking gels were made of different ratios of water, Tris–HCl pH 6.8 and pH 8.8, 10% SDS (Sigma Aldrich), Acrylamide/bis-acrylamide (Sigma Aldrich), 10% APS (Sigma Aldrich), TEMED (Sigma Aldrich). 7.5% gels were prepared for analysis PARP-1, whereas 12% gels prepared for γ-H2AX. After separation on SDS–polyacrylamide gels, proteins were electroblotted on nitrocellulose membrane in Transfer Buffer (Glycine, Tris, Methanol). Membranes were washed in TBS/0.1% or 0.05% Tween20 solution and blocked in Tris-buffered saline with 5% of non-fated dried milk for 1 h. Membranes were then incubated overnight with primary antibodies—anti-PARP-1 (Cell Signaling Technology), anti-γ-H2A.X (Cell Signaling Technology), anti-β-actin (Cell Signaling Technology) in cold room (6 °C). After incubation, membranes well washed with TBS/Tween solution and blocked with and horseradish peroxidase-conjugated secondary antibodies (Bio-Rad) for 1 h in cold room. Protein bands were visualized using ECL™ Prime Western Blotting Detection Reagents (Sigma Aldrich) Healthcare and Carestream Kodak autoradiography GBX fixer/replenisher (Sigma Aldrich) with Developer and Replenisher (Carestream) in the dark room. Results were obtained on Autoradiography Film (Santa Cruz Biotechnology). Densitometric analysis was performed by using a software program (ImageJ). […]

γ-H2AX [5] = assay: Western blot of γ-H2AX, A549; format: cell-based, human; settings: A549, 24 h, IC50 and 1/2IC50
Protocol: as §2

HT-29 cells [6] = assay: Colony forming assay, HT-29
HT-29 cells [7] = assay: Reactive oxygen species assay (DCFH-DA), HT-29; format: cell-based, human; settings: compound at IC50 24 h plus H2O2, H2O2 only 1.88-fold
Protocol: as §1

γ-H2AX [8] = assay: Western blot of γ-H2AX, HT-29; format: cell-based, human; settings: HT-29, 24 h, IC50 and 1/2IC50
Protocol: as §2

HT-29 cells [9] = assay: Apoptosis assay by annexin-V/PI double staining, HT-29; format: cell-based, human; settings: HT-29, 24 h, compound at IC50 (1i 5.90 µM); control 8.62%
Protocol: Compounds were added to the cells and further incubated for 24 h. After treatment, monolayer and supernatant cells were harvested, washed with PBS and centrifuged (monolayer at 1200 rpm for 10 min, supernatant at 3500 rpm for 10 min). Then, cells were re-suspended in binding buffer and stained with 2 µL of Annexin-V and […] of PI (ANNEXIN-V—FITC Apoptosis Detection Kit, Immunostep) in the dark for 10 min at room temperature. Cells were analysed by BD Accuri C6 Flow Cytometry (Becton–Dickinson). Etoposide (Calbiochem) was used as a reference drug. Experiments were done in triplicates.

PARP-1 [10] = assay: Western blot of PARP-1 cleavage, HT-29; format: cell-based, human; settings: HT-29, 24 h, IC50 and 1/2IC50
Protocol: as §2

A549 cells [11] = assay: Cell cycle analysis (PI, flow cytometry), A549; format: cell-based, human; settings: A549, 24 h, compound at 1/2IC50 (1i 7.44 µM)
Protocol: Then, compounds were added into the wells and cells were further incubated for 24 h. After incubation, monolayer and supernatant cells were harvested and washed in PBS. Then, cells were centrifuged (monolayer—1200 rpm for 10 min, supernatant 3500 rpm for 10 min) and fixed in cold 70% ethanol. Pellets were kept at 4 °C for at least 2 h. Prior to analysis, cells were centrifuged and re-suspended in RNAsi (type 1-A; Sigma Aldrich)—PBS working solution (200 µg/mL). Samples were incubated at 37 °C for 10 min. At the end, 3 µL of 2 mg/mL propidium iodide (PI) (Sigma Aldrich) solution was added to each sample. Samples were kept in the dark prior to analysis. Analysis was performed on BD Accuri C6 Flow Cytometry (Becton–Dickinson). Etoposide (Calbiochem) was used as a reference drug. Experiments were done in triplicates.

SH-SY5Y cells = assay: Cytoprotection against rotenone/oligomycin A, co-incubation, MTT; format: cell-based, human; settings: co-incubation with rotenone/oligomycin A, 0.001 µM
Protocol: In the co-incubation assay, compounds and mixture of R/O were incubated together for 24 h. […] It turned out that none of the compounds (apart from 1i at the concentration of 0.001 µM and cytoprotection of 2.99%) had cytoprotective properties in the whole range of concentrations (Fig. 17). Compounds were not able to capture free radicals; therefore they cannot be classified as free-radical scavengers.

Structure (SMILES) | Cytotoxic effect on cisplatin-resistant versus non-resistant 253J B-V cells (in words) [1] | Increase in ROS level (DCF fluorescence) in comparison with non-treated control (A549 cells [2]) [fold] | Number of colonies expressed as percent of control number (A549 cells [3]; compound at 2xIC50) [%] | Cleaved PARP-1 (89 kDa) level (in words) (PARP-1 [4]) | γ-H2AX protein level / DNA damage (in words) (γ-H2AX [5]) | Number of colonies expressed as percent of control number (HT-29 cells [6]; compound at 1/2IC50) [%] | Number of colonies expressed as percent of control number (HT-29 cells [6]; compound at 2xIC50) [%] | Number of colonies expressed as percent of control number (HT-29 cells [6]; compound at IC50) [%] | Increase in ROS level (DCF fluorescence) in comparison with non-treated control (HT-29 cells [7]) [fold] | γ-H2AX protein level / DNA damage (in words) (γ-H2AX [8]) | Total apoptotic cells (HT-29 cells [9]) [%] | Cleaved PARP-1 (89 kDa) level (in words) (PARP-1 [10]) | Number of colonies expressed as percent of control number (A549 cells [3]; compound at 1/2IC50) [%] | Number of colonies expressed as percent of control number (A549 cells [3]; compound at IC50) [%] | Cells in G2/M phase (A549 cells [11]) [%] | Cells in S phase (A549 cells [11]) [%] | Cells in G0/G1 phase (A549 cells [11]; control 51.74%) [%] | Cytoprotection (SH-SY5Y cells) [%]
O=C(NCCCNc1c2c(nc3ccccc13)CCCC2)c1ccccc1I [Compound 1b] | resistant cells were more sensitive | 1.98 | 3.55 | comparable apoptotic effect at their IC50 concentrations | slightly lower | – | – | – | – | – | – | – | – | – | – | – | – | –
O=C(NCCCCNc1c2c(nc3ccccc13)CCCC2)c1ccccc1I [Compound 1c] | resistant cells were more sensitive | – | – | – | – | 10.06 | 0 | 4.38 | 1.83 | lowest effect on DNA damage | 12.96 | lower apoptosis at IC50 concentrations | – | – | – | – | – | –
O=C(NCCCNc1c2c(nc3ccccc13)CCCC2)c1cccc(I)c1 [Compound 1e] | – | 1.98 | – | comparable apoptotic effect at their IC50 concentrations; also recorded: highest PARP-1 cleavage was observed for 1/2IC50 (11.75 µM) | strongest effect | – | – | – | – | – | – | – | – | – | – | – | – | –
O=C(NCCCCNc1c2c(nc3ccccc13)CCCC2)c1ccc(I)cc1 [Compound 1i] | – | 1.98 | 0 | highest effect | higher ability to damage DNA at 1/2IC50 concentration (7.44 µM) than at IC50 concentration (14.87 µM) | – | – | – | 1.85 | strongest H2AX phosphorylation | 11.80 | highest PARP-1 cleavage | 39.47 | 4.70 | 11.31 | 12.76 | 75.93 | 2.99
